Measurements from patent US9474790B2, “Stable, protracted GLP-1/glucagon receptor co-agonists for medical use” (Novo Nordisk A/S, priority 2013, dated 2016).
Numbered stars: 1 amine (or outer) side, 2 acyl side, 3 side chain; on linkers, the order of the positions; unused ones are H or OH. Square brackets hold non-standard residues; d marks the D form. Side chains are listed from the residue outwards. Peptide text beside a SMILES is read from it. * marks the point of attachment. C18 diacid = O=C(O)CCCCCCCCCCCCCCCCC(=O)*; γGlu = O=C(O)[C@H](CCC(=O)[*:2])N[*:1]; Ac4c = NC1(C(=O)O)CCC1; AEEA = NCCOCCOCC(=O)O; Aib = CC(C)(N)C(=O)O

Experiment: Chemical stability assessment by RP-UPLC
Assay type: physicochemical
Settings: 333 μM, 8 mM phosphate buffer pH 7.3, 37° C. vs 5° C.
Procedure, shortened: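 Purity loss = (purity after 14 days at 5° C. minus that at 37° C.) relative to the 5° C. value, purity being main-peak area % by RP-UPLC with UV at 215 nm. Samples were 333 μM in 8 mM phosphate, pH 7.3; gradient adjusted for outlying retention times.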

Purity loss; 14 days at 37° C. [%] | Structure (SMILES)
2 | CC(C)C[C@H](NC(=O)[C@H](CC(=O)O)NC(=O)[C@H](CC(C)C)NC(=O)[C@H](Cc1ccc(O)cc1)NC(=O)[C@H](CCCCN)NC(=O)[C@H](CO)NC(=O)[C@H](CC(C)C)NC(=O)[C@H](CC(=O)O)NC(=O)[C@H](CO)NC(=O)[C@@H](NC(=O)[C@H](Cc1ccccc1)NC(=O)[C@@H](NC(=O)CNC(=O)[C@H](CCC(N)=O)NC(=O)C(C)(C)NC(=O)[C@@H](N)Cc1c[nH]cn1)[C@@H](C)O)[C@@H](C)O)C(=O)N[C@@H](CCCNC(=N)N)C(=O)N[C@@H](CCCNC(=N)N)C(=O)N[C@@H](C)C(=O)N[C@@H](CCCNC(=N)N)C(=O)N[C@@H](CC(=O)O)C(=O)N[C@@H](Cc1ccccc1)C(=O)N[C@H](C(=O)N[C@@H](CCC(N)=O)C(=O)N[C@@H](Cc1c[nH]c2ccccc12)C(=O)N[C@@H](CC(C)C)C(=O)N[C@@H](CC(C)C)C(=O)N[C@@H](CCCCNC(=O)CNC(=O)[C@H](CO)NC(=O)[C@H](CCC(=O)O)NC(=O)[C@H](CO)NC(=O)CC[C@H](NC(=O)CC[C@H](NC(=O)CCCCCCCCCCCCCCCCC(=O)O)C(=O)O)C(=O)O)C(=O)N[C@H](C(N)=O)[C@@H](C)O)C(C)C [Example 55, N^ε28-[2-[[(2S)-2-[[(2S)-4-carboxy-2-[[(2S)-2-[[(4S)-4-carboxy-4-[[(4S)-4-carboxy-4-(17-carboxyheptadecanoylamino)butanoyl]amino]butanoyl]amino]-3-hydroxypropanoyl]amino]butanoyl]amino]-3-hydroxypropanoyl]amino]acetyl]-[Aib2,Leu10,Leu16,Arg20,Leu27,Lys28]-Glucagon amide] (H-H[Aib]QGTFTSDLSKYLDLRRARDFVQWLLK([Gly-Ser-Glu-Ser-γGlu-γGlu-C18 diacid])T-NH2; N-terminus assumed)
3 | CC(C)C[C@H](NC(=O)[C@H](CC(=O)O)NC(=O)[C@H](CC(C)C)NC(=O)[C@H](Cc1ccc(O)cc1)NC(=O)[C@H](CCCCN)NC(=O)[C@H](CO)NC(=O)[C@H](CC(C)C)NC(=O)[C@H](CC(=O)O)NC(=O)[C@H](CO)NC(=O)[C@@H](NC(=O)[C@H](Cc1ccccc1)NC(=O)[C@@H](NC(=O)CNC(=O)[C@H](CCC(N)=O)NC(=O)C1(NC(=O)[C@@H](N)Cc2c[nH]cn2)CCC1)[C@@H](C)O)[C@@H](C)O)C(=O)N[C@@H](CCCNC(=N)N)C(=O)N[C@@H](CCCNC(=N)N)C(=O)N[C@@H](C)C(=O)N[C@@H](CCCNC(=N)N)C(=O)N[C@@H](CC(=O)O)C(=O)N[C@@H](Cc1ccccc1)C(=O)N[C@H](C(=O)N[C@@H](CCC(N)=O)C(=O)N[C@@H](Cc1c[nH]c2ccccc12)C(=O)N[C@@H](CC(C)C)C(=O)N[C@@H](CC(C)C)C(=O)N[C@@H](CCCCNC(=O)CC[C@H](NC(=O)CC[C@H](NC(=O)COCCOCCNC(=O)COCCOCCNC(=O)CC[C@H](NC(=O)CC[C@H](NC(=O)CCCCCCCCCCCCCCCCC(=O)O)C(=O)O)C(=O)O)C(=O)O)C(=O)O)C(=O)N[C@H](C(N)=O)[C@@H](C)O)C(C)C [Example 45, N^ε28-[(4S)-4-carboxy-4-[[(4S)-4-carboxy-4-[[2-[2-[2-[[2-[2-[2-[[(4S)-4-carboxy-4-[[(4S)-4-carboxy-4-(17-carboxyheptadecanoylamino)butanoyl]amino]butanoyl]amino]ethoxy]ethoxy]acetyl]amino]ethoxy]ethoxy]acetyl]amino]butanoyl]amino]butanoyl]-[Acb2,Leu10,Leu16,Arg20,Leu27,Lys28]-Glucagon amide] (H-H[Ac4c]QGTFTSDLSKYLDLRRARDFVQWLLK([γGlu-γGlu-AEEA-AEEA-γGlu-γGlu-C18 diacid])T-NH2; N-terminus assumed)
